Source: patent US10526292B2 (Parion Sciences, Inc., priority 2012, dated 2020)

Columns and labels:
[1] = In vitro drug metabolism: plasma stability, rat; assay type: in vitro ADME; conditions: 2.5 μM, 37° C., up to six hours
Method: (§1) The metabolic stability of 9 and 15 was assessed in plasma (rat, rabbit, dog and human) and hepatocytes (rat and dog). Compounds were added either directly to plasma or to hepatocyte suspensions at a final concentration of 2.5 or 10 μM, respectively, and incubated at 37° C. for up to six hours. Aliquots were removed at various time points and quenched. The amount of parent compound was quantified via UPLC-fluorescence analysis. The amount of parent compound remaining was calculated based on the total peak area at the time of sampling divided by the total peak area at initiation.

[2] = system: ExLac rats; assay: Tear volume in rat model of dry eye disease (lacrimal gland excision, ExLac Model); assay type: in vivo, Sprague Dawley rats; conditions: 5 μl test article solution per eye, tear volume by ZoneQuick thread over 6 h
Method: The effects of compounds on tear volume was assessed in a rat model of dry eye disease in which Sprague Dawley rats undergo surgical lacrimal gland excision (ExLac Model) to reduce normal tear volume. The lacrimal excision reduces normal tear volume by ˜50% (Table 2).
Both the ipsilateral and contralateral eyes were dosed with 5 μl of test article solution. Tear production was measured using the ZoneQuick cotton thread with impregnated phenol red dye. The folded end of the thread was held in the lateral-ventral conjunctival cul-de-sac for 10 seconds. The length of tear wicking onto the thread was determined by measuring the length of the thread that changes color from yellow to red. Use of a stereomicroscope was assist in the accurate measurement (recorded in millimeters) of the wicking/color change. Tear volume was assessed pre-dose, and 15, 30, 60, 120, and 360 minute post-dose. For reference, the effect of a saline vehicle is shown for ExLac rats and normal (no lacrimal excision surgery) rats.

[3] = In vitro drug metabolism: hepatocyte stability, dog; assay type: in vitro ADME; conditions: dog hepatocyte suspension, 10 μM, 37° C., up to six hours
Method: as §1

[4] = In vitro drug metabolism: plasma stability, human; assay type: in vitro ADME; conditions: 2.5 μM, 37° C., up to six hours
Method: as §1

[5] = In vitro drug metabolism: hepatocyte stability, rat; assay type: in vitro ADME; conditions: rat hepatocyte suspension, 10 μM, 37° C., up to six hours
Method: as §1

[6] = In vitro drug metabolism: plasma stability, dog; assay type: in vitro ADME; conditions: 2.5 μM, 37° C., up to six hours
Method: as §1

[7] = In vitro drug metabolism: summary in words for plasma and hepatocytes among the species evaluated; assay type: in vitro ADME; conditions: plasma (rat, rabbit, dog, human) and hepatocytes (rat, dog)
Method: as §1

[8] = Confocal microscopy assay of amiloride congener transport; assay type: in vitro ADME; conditions: applied to apical (epithelial) surface of mouse corneas, one hour at 37 C
Excerpt: Serial x-y images were obtained one hour post-drug addition by confocal microsopy.

[9] = In vitro drug metabolism: plasma stability, rabbit; assay type: in vitro ADME; conditions: 2.5 μM, 37° C., up to six hours
Method: as §1

[10] = biological target: Muc5B (Homo sapiens, UniProt Q9HC84); conditions: in vitro; cited from earlier work

Row | Plasma Stability (amount of parent compound remaining) [1] | Hepatocyte Stability (amount of parent compound remaining) [3] | Plasma Stability (amount of parent compound remaining) [4] | Hepatocyte Stability (amount of parent compound remaining) [5] | Plasma Stability (amount of parent compound remaining) [6] | Stability towards metabolic hydrolysis in plasma and hepatocytes [7] | Plasma Stability (amount of parent compound remaining) [9] | SMILES | 6 h Ocular Hydration (AUC0-6) [2] | Penetration of the cornea (confocal x-z image, FIG. 16) [8] | Concentration required to fully reduce Muc5B [10]
1 | 87% | 94% | 101% | 100% | 103% | stable towards metabolic hydrolysis | 89% | N=C(N)NCCCC[C@@H](N)C(=O)NCCCN(CCCNC(=O)[C@H](N)CCCCNC(=N)N)CCOc1ccc(CCCCNC(=N)NC(=O)c2nc(Cl)c(N)nc2N)cc1 [Compound 9, (2R,2′R)—N,N′-(3,3′-(2-(4-(4-(3-(3,5-diamino-6-chloropyrazine-2-carbonyl)guanidino)butyl)phenoxy)ethylazanediyl)bis(propane-3,1-diyl))bis(2-amino-6-guanidinohexanamide)] | 50.2 | remains associated with the apical (epithelial) surface | –
2 | – | – | – | – | – | – | – | CC(=O)N[C@@H](CS)C(=O)O [NAC, N-acetyl cysteine] | – | – | 200 mM
